Values of other authors as cited in PubChem BioAssay AID493017 (Abbott Labs, 2003).

Target: Cyclin-dependent kinase 2 (Homo sapiens) (UniProt P24941)
Experiment: PubChem AID 493017
Conditions: WOMBAT literature affinities, multiple human targets; CDK2; gene CDK2; NCBI gene 1017

| SMILES | IC50 [nM] |
| --- | --- |
| Cc1ccc(C(=O)Nc2ccc3c(c2)Cc2cc(NC(=O)c4ccc(C)cc4)ccc2-3)cc1 | 2960 |
| C#Cc1cccc(N2C(=O)c3ccc(Oc4cccc(N5C(=O)c6ccc([N+](=O)[O-])cc6C5=O)c4)cc3C2=O)c1 | 2830 |
| O=[N+]([O-])c1ccc(S(=O)(=O)c2ccc(Oc3ccc(S(=O)(=O)c4ccc([N+](=O)[O-])cc4)cc3)cc2)cc1 | 1520 |
| O=C(Nc1ccc(NC(=O)c2ccccc2[N+](=O)[O-])cc1)c1ccc(NC(=O)c2ccccc2[N+](=O)[O-])cc1 | 1370 |
| CCC(C)c1cc(N)nc2nc3cc(C)c(C)cc3n12 (centres undefined) | 6620 |
| O=C1c2ccc([N+](=O)[O-])c3c([N+](=O)[O-])ccc(c23)C(=O)N1c1ccc(S(=O)(=O)Nc2cc(Cl)ccc2O)cc1 | 1410 |
| O=C(Nc1ccc(Cl)cc1)c1cc(Br)ccc1NS(=O)(=O)c1ccc(Br)c2nsnc12 | 3660 |
| O=C(Nc1cccc2cccc(NC(=O)c3ccc([N+](=O)[O-])cc3)c12)c1ccc([N+](=O)[O-])cc1 | 2940 |
| CC(=O)c1c(O)c(C)c(O)c(Cc2c(O)c3c(c(C(=O)C=Cc4ccccc4)c2O)OC(C)(C)C=C3)c1O | 4550 |
| O=C(Nc1ccc([N+](=O)[O-])cc1)C(Cc1ccccc1)N1C(=O)c2cccc3cccc(c23)C1=O (centres undefined) | 4190 |
| S=c1[nH]c(=S)c2c3c(sc2[nH]1)CN(Cc1ccccc1)CC3 | 1130 |
| Cc1cccc(NC(=O)Nc2ccc(Cc3ccc(NC(=O)Nc4cccc(C)c4)cc3)cc2)c1 | 4820 |
| Nc1ccc(C(=O)Nc2ccc(-c3nc4ccc(NC(=O)c5ccc(N)cc5)cc4[nH]3)cc2)cc1 | 4510 |
| OCCNc1cc(-c2[nH]c3nccnc3c2-c2ccc(F)cc2)ccn1 | 3500 |
| CN1CCc2nc(SCc3ccc(C(C)(C)C)cc3)c(C#N)c(-c3cccs3)c2C1 | 1120 |
| c1cnc2nc(-c3ccncc3)[nH]c2c1 | 3000 |
| Nc1nc(NS(=O)(=O)c2ccc(C(F)(F)F)cc2)cc(-c2ccc(F)cc2)n1 | 1860 |
| c1ccc2c(c1)nc(SC1=NCCCN1)c1c3ccccc3[nH]c21 | 2160 |
| Cc1nc(N=C(N)NC(=O)Nc2ccc(Cl)cc2)sc1Br | 2900 |
| O=C(CSc1nnc(SCC(=O)Nc2nc(-c3ccccc3)cs2)s1)Nc1nc(-c2ccccc2)cs1 | 1310 |
| COC(=O)c1c(NC(=O)Nc2ccc(Cl)cc2)sc2c1CCN(c1ncc(C(F)(F)F)cc1Cl)C2 | 8890 |
| N#Cc1cnc(NC2CCCCC2)nc1N | 1100 |

Results, then the molecule that gave them:

| IC50 [nM] | SMILES |
| --- | --- |
| 1480 | N#CC(=Cc1cc(O)c(O)c(O)c1)C(N)=C(C#N)C#N |
| 4100 | Cc1cc(Nc2ccc3[nH]ncc3c2)nc(NCC2CC2)n1 |
| 2580 | Oc1cc(O)cc(C=Cc2ccc(O)c(O)c2)c1 |
| 3370 | O=C(Nc1ccccc1)Nc1sccc1OCc1ccc(Cl)cc1Cl |
| 4390 | COC(=O)NC1=Nc2cccc3cccc(c23)N1 |
| 3300 | CCCCCOC(=O)c1ccc(N2C(=O)c3ccc(Oc4ccc(NC(C)=O)cc4)cc3C2=O)cc1 |
| 7350 | CCOC(=O)Nc1nc2ccc(C=Cc3ccc(C)cc3)cc2[nH]1 |
| 1210 | O=C(Cc1nnc(NC(=O)c2ccc([N+](=O)[O-])c(Cl)c2)s1)NNC(=O)c1ccc([N+](=O)[O-])c(Cl)c1 |
| 7770 | COC(=O)c1cc(=O)n2c(nc3cc(C(F)(F)F)ccc32)s1 |
| 2650 | Cc1cc(Cc2ccc(NC(N)=S)c(C)c2)ccc1NC(N)=S |
| 1220 | Cc1ccc(Nc2nc(-c3cc(C(C)(C)C)c(O)c(C(C)(C)C)c3)c(C)s2)cc1 |
| 1150 | O=C(Nc1cc([N+](=O)[O-])ccc1O)c1ccc(Oc2ccc(C(=O)Nc3cc([N+](=O)[O-])ccc3O)cc2)cc1 |
